Measured values published in US11260132B2, “Engineered liposomes as cancer-targeted therapeutics” (Children's Medical Center Corporation, priority 2017, dated 2022).

System: MDA-MB-436 cells
Assay: CEL-Dox cytotoxicity, Dojindo cell viability assay (Example 1)
Format: cell-based, human
Settings: 6 h treatment, grown 48 h, CEL-Dox at 1.5:1
Description: The cytotoxicity of CEL-Dox on TNBC cells were evaluated using a cell viability assay. 5×10^3 cells (MDA-MB-231 and MDA-MB-436) were seeded in each well of a 96 well plate and incubated for 24 h. Cells were treated with (1) PBS, (2) Free Dox, (3) non-specific IgG-conjugated, Dox-encapsulating liposomes (IgG-Dox-LPs), (4) ICAM-1 antibody-conjugated, Dox-encapsulating liposomes (ICAM-1-Dox-LP), (5) EGFR antibody-conjugated, Dox-encapsulating liposomes (EGFR-Dox-LP), and (6) Dox-encapsulating CELs at optimal ICAM-1/EGFR antibody ratios (4.2/1 for MDA-MB-231 cells, and 1.5/1 for MDA-MB-436 cells) at the final liposome concentration of 1 μM lipids per 10^6 cells for 6 hours. Cells were rinsed three times with PBS and grown for 48 hours. Cell viability was determined by a Dojindo cell counting kit using the protocol from the manufacturer (Rockville, Md.).

SMILES: COc1cccc2c1C(=O)c1c(O)c3c(c(O)c1C2=O)C[C@@](O)(C(=O)CO)C[C@@H]3O[C@H]1C[C@H](N)[C@H](O)[C@H](C)O1 [free Dox, doxorubicin]
- half maximal inhibitory concentration (IC50): 0.0355 µg/mL
